Where two headings read alike, the source gives them in different places.

The source of these data is patent US5650406A, “Adamantane derivative, process for producing the same, and use thereof” (Asahi Kasei Kogyo Kabushiki Kaisha, priority 1994, dated 1997).

For assay [1], the target named is σ-receptor. As to the kind of experiment: σ-receptor binding, [^3 H] DTG displacement on rat brain membranes (Table 1). Set-up: species or system Sprague-Dowley rats. As to conditions: for Ki: hydrochloride, [^3 H] DTG 3 nM, 25° C., 60 minutes, rat brain membrane, read-out: Sigma [^3 H] DTG Ki.
For assay [2], the system named is σ-receptor. Particulars: cited from earlier work.
The subject of assay [3] is apomorphine induced climbing. As to the kind of experiment: Suppressive action on apomorphine induced climbing (Table 2). The assay is classed as in vivo, ICR mice, male. As to conditions: hydrochloride; 30 mg/kg, p.o.; 1 hour before apomorphine 2 mg/kg s.c.; climbing observed 3 minutes after 20-23 minutes. How it is done: Administering dopamine agohist, apomorphine in mouse resulted various abnormal behaviors, and especially, a climbing the cage has been known to be correlated with human schizophrenia. Therefore, a drug showing suppressire activity for apomorphine induced climbing in mice can be presumed to be effective as antischizophrenia activity on humans.
The compounds of the present invention were administered orally in ICR mice, male (Charles River Corp.), and after 1 hour, apomorphine 2 mg/kg was administered subcutaneously. Climbing behaviors of 3 minutes after 20-23 minutes of apomorphine administration were observed. Climbing behavior was observed by entering the mice in stainless steel made wire netting cage and measuring time remaining above the upper part of half part of the cage at observing. A climbing time of apomorphine single administered group is set as 100% and shortened time by administering the drug is shown in suppression rate.

A word on the Ki: it is the dissociation constant of the complex between target and ligand, obtained from inhibition or displacement. `OC12CC3CC(C1)C(CCN1CC4CCC(CC4)C1)C(C3)C2` (single isomer, unassigned) [Example 2, 3-[2-(5-hydroxy-2-adamantyl)ethyl]-3-azabicyclo[3.2.2] nonane]: the Ki at σ-receptor [1] was 0.5 nM.
Same read-out and setting: the same measure for `ClC12CC3CC(C1)C(CCN1CC4CCC(CC4)C1)C(C3)C2` (single isomer, unassigned) [Example 3, 3-[2-(5-chloro-2-adamantyl)ethyl]-3-azabicyclo[3.2.2] nonane]: 0.27 nM; for `COC12CC3CC(C1)C(CCN1CC4CCC(CC4)C1)C(C3)C2` (single isomer, unassigned) [Example 4, 3-[2-(5-methoxy-2-adamantyl)ethyl]-3-azabicyclo[3.2.2] nonane]: 1.03 nM.
With `OC(CCCN1CCN(c2ncc(F)cn2)CC1)c1ccc(F)cc1` (stereo not drawn) [BMY-14802], in the assay with σ-receptor [2] (prior art), the “affinity to σ-receptor (background, in words)” value (“affinity to σ-receptor” for short) is “show affinity to σ-receptor”.
With `C1CC2CCC1CN(CCC1C3CC4CC(C3)CC1C4)C2` (stereo not drawn) [Example 1, 3-[2-(2-adamantyl)ethyl]-3-azabicyclo[3.2.2] nonane], the Suppressive rate in assay [3] was found to be 62%. At σ-receptor [1], the inhibitory constant (Ki) was found to be 0.34 nM.
For `C1CC2CCC1CN(CCC13CC4CC(CC(C4)C1)C3)C2` [Example 5, 3-[2-(1-adamantyl)ethyl]-3-azabicyclo[3.2.2] nonane], the Ki on σ-receptor [1] was found to be 0.19 nM.
Consider `CC12CC3CC(C1)CC(CCN1CC4CCC(CC4)C1)(C3)C2` [Example 6, 3-[2-(3-methyl-l-adamantyl)ethyl]-3-azabicyclo[3.2.2] nonane], for which, at σ-receptor [1], the Ki was found to be 0.45 nM.
As for `C1C2CC3CC1CC(C2)C3CCN1CC2CC3CC(C2)CC1C3` (stereo not drawn) [Example 7, 4-[2-(2-adamantyl)ethyl]-4-azatricyclo[4.3.1.1^3.8] undecane], the Suppressive rate in assay [3] is 60%. Further, the Ki on σ-receptor [1] was 0.26 nM.
In turn, `OC12CC3CC(C1)C(CCN1CC4CC5CC(C4)CC1C5)C(C3)C2` (stereo not drawn) [Example 8, 4-[2-(5-hydroxy-2-adanaantyl)ethyl]-4-azatricyclo[4.3.1.1^3.8] undecane] displayed a Suppressive rate in assay [3] of 78%. At σ-receptor [1], the Ki amounted to 1.23 nM.
`ClC12CC3CC(C1)C(CCN1CC4CC5CC(C4)CC1C5)C(C3)C2` (stereo not drawn) [Example 9, 4-[2-(5-chloro-2-adamantyl)ethyl]-4-azatricyclo[4.3.1.1^3.8] undecane]: the Ki at σ-receptor [1] turned out to be 0.55 nM.
As to `COC12CC3CC(C1)C(CCN1CC4CC5CC(C4)CC1C5)C(C3)C2` (stereo not drawn) [Example 10, 4-[2-(5-methoxy-2-adamantyl)ethyl]-4-azatricyclo[4.3.1.1^3.8] undecane], the Ki at σ-receptor [1] is 0.63 nM.
Take `C1C2CC3CC1CC(C2)N(CCC12CC4CC(CC(C4)C1)C2)C3` [Example 11, 4-[2-(1-adamantyl)ethyl]-4-azatricyclo[4.3.1.1^3.8] undecane]: at σ-receptor [1], the Ki was 0.2 nM.
In the case of `CC12CC3CC(C1)CC(CCN1CC4CC5CC(C4)CC1C5)(C3)C2` [Example 12], the Ki on σ-receptor [1] stood at 0.29 nM.
As to `O=C(CCCN1CCC(O)(c2ccc(Cl)cc2)CC1)c1ccc(F)cc1` [haloperidol], the “affinity to σ-receptor” value in the assay on σ-receptor [2] is “bind strongly with σ-receptor”.
On to `C[C@@H]1CN(CCCn2c3ccccc3c3ccccc32)C[C@H](C)N1` [limcazol], for which the “affinity to σ-receptor” value in the assay on σ-receptor [2] (prior art) is recorded as “show affinity to σ-receptor”.
As to `c1ccc(C2(N3CCCCC3)CCCCC2)cc1` [phencyclidine], in the assay on σ-receptor [2] (prior art), the “affinity to σ-receptor” value is “has affinities for σ-receptor”.
Regarding `Cc1ccccc1NC(=N)Nc1ccccc1C` [radioactive ligand, [^3 H] 1,3-di(2-tolyl) guanidine, reference compound], on σ-receptor [1] (radioactive ligand for σ-receptor, used in Ki calculation, read-out: Kd (concentration of affinity of radioactive ligand for receptor)), the Kd was 10.6 nM.
In the case of haloxon, the “affinity to σ-receptor” value with σ-receptor [2] (prior art) was “no affinity to σ-receptor”.
